Laboratory results as given in PubChem BioAssay AID2305 (GlaxoSmithKline (GSK), 2010).

Each compound was assayed on P. falciparum 3D7 growth, pLDH absorbance (assay: P. falciparum 3D7 growth inhibition, dose response, strain 3D7 (AID 2305)).

Structure (SMILES) | IC50 [nM]
c1ccc2c(NCCCCCCNc3ccnc4ccccc34)ccnc2c1 | 190
CC(=O)Oc1cc(C(=O)Nc2ccc(Cl)cc2)cc2ccccc12 | 860
O=C(Nc1cccc(-c2ccc(NCCCN3CCCC3)nc2)c1)c1ccccc1 | 870
CC(=O)N1N=C(c2ccccc2)Sc2c1nc(-c1ccc(Cl)cc1)n2C(C)=O | 990
O=C(/C=C/c1ccc(Cl)c(Cl)c1)NC1CCC(CN2CCC(c3nc4ncccc4[nH]3)CC2)CC1 (stereo not given) | 1230
N#Cc1cccc(C(O)CN(Cc2ccccc2)Cc2ccccc2)c1 (stereo not given) | 1270
COc1c(Br)cc(Br)cc1-c1ccc(CN2C3CCCC2CCC3)[nH]1 | 1110
CC(Oc1cc(-n2cnc3ccc(NC(=O)CCN4CCCCC4)cc32)sc1C(N)=O)c1ccccc1Cl (stereo not given) | 400
Cn1c(=N)n(CC(=O)N2CCc3ccc(Cl)cc3C2Cc2ccc(Cl)c(Cl)c2)c2ccccc21 (stereo not given) | 870
COc1ccccc1N1CCN(C(C(=O)NCc2ccc3c(c2)OCO3)c2ccc(C)cc2)CC1 (stereo not given) | 980
CN(C)c1cccc(NC(=O)NC2N=C(c3ccccc3)c3ccccc3N(CC(=O)N(C)c3ccccc3)C2=O)c1 (stereo not given) | 950
COC(=O)[C@@H](NC(=O)[C@H](Cc1ccc(OC)c(OC)c1)Nc1ccc(C#N)c2ccccc12)c1ccc(O)cc1 | 750
COc1cc2nc(N3CCC(CNC(=O)/C=C/c4ccccc4F)CC3)nc(N)c2cc1OC | 580
Cc1cccc2[nH]c(-c3cccc(-c4cccc(CNCCc5ccncc5)c4)c3)nc12 | 140
O=c1cc(NCCCNCc2csc(Br)c2Sc2ccc(Cl)cc2)[nH]c2ccccc12 | 850
O=C(Nc1cccc(-c2ccc(-c3nc4ccc(C(F)(F)F)cc4[nH]3)cc2)c1)c1csnn1 | 690
Clc1ccccc1CCNCC1CCN(CC2CCCCC2)CC1 | 690
c1cc(Nc2nc(-c3ccc(-c4csc(Nc5ccncc5)n4)cc3)cs2)ccn1 | 120
CCOc1cc(C(=O)NCc2ccc(Cl)c(Cl)c2)ccc1-c1nc2ccc(Cl)cc2[nH]1 | 800
CCc1nc2c(N)nc(N)nc2nc1-c1ccc(OC)cc1 | 1200
NC(N)=Nc1ccc(CCc2ccc(N=C(N)N)cc2)cc1 | 290
COc1ccc2nccc([C@@H](O)CN3CCC(NCc4cnc5c(c4)NC(=O)CS5)CC3)c2c1 | 860
CCc1cc2c3c(N)nc(N)nc3ccc2n1C(CC)CC | 60
CC(C)CSc1cc(C(=O)Nc2cc(Cl)ccc2O)ccn1 | 670
Clc1ccc(-c2nc3ccc(-c4ccc5nc(-c6ccc(Cl)cc6)[nH]c5c4)cc3[nH]2)cc1 | 240

Structure (SMILES) | IC50 [nM]
COc1cccc(CN2CCCC(OC(c3ccc(F)cc3)c3ccc(F)cc3)C2)c1O (stereo not given) | 790
Cc1cccc(Cl)c1S(=O)(=O)N1CCCCC(c2ccc(C(F)(F)F)cc2)=N1 | 220
COc1cc(C(=O)Nc2cccc(-c3cn4ccc(C)cc4n3)c2)cc(OC)c1OC | 760
CC(=O)Nc1cccc(C(=O)Nc2cccc(-c3cccc(-c4nc5ccccc5[nH]4)c3)c2)c1 | 590
CS(=O)(=O)c1cccc(-c2ccc3oc(C(N)=O)c(NC(=O)c4cccs4)c3c2)c1 | 590
CCc1cn2c3c(cc(C(=O)N[C@@H](Cc4ccccc4)[C@H](O)CNCc4cccc(C)c4)cc13)N(C)S(=O)(=O)CC2 | 250
CCCN(CC(=O)NCCc1ccccc1)c1ccc(C#N)c2ccccc12 | 500
FC(F)(F)c1ccc2nc(-c3ccc(-c4cccc(CNCc5ccccc5)c4)s3)[nH]c2c1 | 150
CCCCc1ccc(-c2c(N)nc(N)nc2CC)cc1 | 950
CN(C)CC(=O)Nc1cccc(Nc2nccc(NCC(O)c3ccccc3)n2)c1 (stereo not given) | 980
Nc1nc(N)c2c(ccc3c2ccn3Cc2ccccn2)n1 | 10
COC(=O)c1ccc(CC(C)NCC(O)c2cccc(C(F)(F)F)c2)c(OC)c1 (stereo not given) | 800
COc1ccc2ncc(C#N)c(CCN3CCC(NCc4ccc5c(n4)NC(=O)CS5)CC3)c2n1 | 840
O=C(Nc1ccccc1Br)N[C@@H]1CCN(c2ccnc3ccccc23)C1 | 940
O=C(NCC1CCN(CC2CCCCC2)C1)c1cc(-c2cccc(Cl)c2)cs1 (stereo not given) | 1090
Oc1ccccc1CNCC(O)c1cccc(C(F)(F)F)c1 (stereo not given) | 530
COc1ccc(NC(=O)[C@H](Cc2ccccc2)Nc2cc(C)nc(NCCc3ccc(F)cc3)n2)cc1 | 1120
COc1cc(-c2cc(-c3ccc(S(C)(=O)=O)cc3)cnc2N)ccc1O | 100
CCCCCCCc1cc(O)c2c3c(c(=O)oc2c1)CN(C)CC3 | 140
COc1ccc(CCNc2nc(NCc3ccccc3)c3cc(OC)c(OC)cc3n2)cc1OC | 330
O=c1cc(NCCCNC2CCOc3c(Cl)cc(Cl)cc32)[nH]c2ccccc12 (stereo not given) | 720
CC(=O)Nc1nc(C(=O)Nc2ccc(-c3cccc(-c4nc5c(C)cccc5[nH]4)c3)cc2)cs1 | 230
COc1cccc2c1CCN(CCN1CCC(CNC(=O)c3ccc(-c4ccc(C#N)cc4)cc3)CC1)C2 | 760
NC(N)=Nc1nc(-c2ccc(NC(=O)Nc3cccc(-c4csc(N=C(N)N)n4)c3)cc2)cs1 | 1010
N#Cc1c(N2CCN(c3ccc(F)cc3)CC2)nc(N)c2c(N)nc3c(c12)CC(=O)N3C1CC1 | 840
